{"source": "patent US7138361B2", "about": "“Herbicidal heterocycles” (E. I. du Pont de Nemours and Company, priority 2000, dated 2006)", "type_in_all_cases": "in vivo", "key": {"[1]": {"system": "Sunflower", "test": "Test C preemergence", "settings": "Rate 500 g/ha, visual evaluation after 12 to 14 days"}, "[2]": {"system": "smallflower flatsedge (Cyperus difformis)", "test": "Test C flooded paddy test", "settings": "for Flatsedge plant response rating: Flooded Paddy, scale 0 to 100, 0 no effect, 100 complete control; for Plant response rating, Flatsedge: flooded paddy test, scale 0 to 100 (0 no effect, 100 complete control)", "method_in_brief": "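Flooded paddy, 2-leaf stage at treatment. Readout: visual % control vs untreated, 0–100, at 12–14 d in greenhouse.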"}, "[3]": {"system": "Nightshade", "test": "Test C preemergence", "settings": "Rate 500 g/ha, visual evaluation after 12 to 14 days"}, "[4]": {"system": "wheat (Triticum aestivum)", "test": "Test B postemergence", "settings": "13 to 15 days", "method_in_brief": "(§1)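 Visual injury scores, 0 = no effect to 100 = complete control, assigned against controls after 13 to 15 days in the greenhouse. Compounds formulated in non-phytotoxic solvent plus surfactant and applied to soil after planting (pre) or onto foliage of 1- to 4-leaf plants (post).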"}, "[5]": {"system": "crabgrass (Digitaria sanguinalis)", "test": "Test B postemergence", "settings": "13 to 15 days", "method_in_brief": "as §1"}, "[6]": {"system": "lambsquarters (Chenopodium album)", "test": "Test B postemergence", "settings": "13 to 15 days", "method_in_brief": "as §1"}, "[7]": {"system": "Surinam grass (Brachiaria decumbens)", "test": "Test B postemergence", "settings": "13 to 15 days", "method_in_brief": "as §1"}, "[8]": {"system": "barnyardgrass (Echinochloa crus-galli)", "test": "Test B postemergence", "settings": "13 to 15 days", "method_in_brief": "as §1"}, "[9]": {"system": "wild oat (Avena fatua)", "test": "Test B postemergence", "settings": "13 to 15 days", "method_in_brief": "as §1"}, "[10]": {"system": "corn (Zea mays)", "test": "Test B postemergence", "settings": "13 to 15 days", "method_in_brief": "as §1"}, "[11]": {"system": "pigweed (Amaranthus retroflexus)", "test": "Test B postemergence", "settings": "13 to 15 days", "method_in_brief": "as §1"}, "[12]": {"system": "velvetleaf (Abutilon theophrasti)", "test": "Test B postemergence", "settings": "13 to 15 days", "method_in_brief": "as §1"}, "[13]": {"system": "blackgrass (Alopecurus myosuroides)", "test": "Test B postemergence", "settings": "13 to 15 days", "method_in_brief": "as §1"}, "[14]": {"system": "cocklebur (Xanthium strumarium)", "test": "Test B postemergence", "settings": "13 to 15 days", "method_in_brief": "as §1"}, "[15]": {"system": "giant foxtail (Setaria faberii)", "test": "Test B postemergence", "settings": "13 to 15 days", "method_in_brief": "as §1"}, "[16]": {"system": "morning glory (Ipomoea hederacea)", "test": "Test B postemergence", "settings": "13 to 15 days", "method_in_brief": "as §1"}, "[17]": {"system": "crabgrass (Digitaria sanguinalis)", "test": "Test B preemergence", "method_in_brief": "as §1"}, "[18]": {"system": "lambsquarters (Chenopodium album)", "test": "Test B preemergence", "method_in_brief": "as §1"}, "[19]": {"system": "Surinam grass (Brachiaria decumbens)", "test": "Test B preemergence", "method_in_brief": "as §1"}, "[20]": {"system": "rice (Oryza saliva)", "test": "Test B preemergence", "method_in_brief": "as §1"}, "[21]": {"system": "barnyardgrass (Echinochloa crus-galli)", "test": "Test B preemergence", "method_in_brief": "as §1"}, "[22]": {"system": "corn (Zea mays)", "test": "Test B preemergence", "method_in_brief": "as §1"}, "[23]": {"system": "pigweed (Amaranthus retroflexus)", "test": "Test B preemergence", "method_in_brief": "as §1"}, "[24]": {"system": "velvetleaf (Abutilon theophrasti)", "test": "Test B preemergence", "method_in_brief": "as §1"}, "[25]": {"system": "cocklebur (Xanthium strumarium)", "test": "Test B preemergence", "method_in_brief": "as §1"}, "[26]": {"system": "giant foxtail (Setaria faberii)", "test": "Test B preemergence", "method_in_brief": "as §1"}, "[27]": {"system": "morning glory (Ipomoea hederacea)", "test": "Test B preemergence", "method_in_brief": "as §1"}, "[28]": {"settings": "Rate 125 g/ha, scale 0 (no effect) to 100 (complete control)"}, "[29]": {"settings": "Rate 500 g/ha, scale 0 to 100, 0 is no effect, 100 is complete control"}, "[30]": {"settings": "Preemergence, Rate 500 g/ha, scale 0 to 100, 0 no effect, 100 complete control"}, "[31]": {"settings": "preemergence, Rate 125 g/ha, scale of 0 to 100 where 0 is no effect and 100 is complete control, 13 to 15 days"}}, "data": [{"smiles": "COc1cccc(N2CCC(n3ccc(C(C)(C)C)n3)C2=O)c1", "note": "(stereo not drawn) [Compound 87]", "values": [{"measurement": "Plant response rating (0 to 100), Sunflower", "setting": "[1]", "result": 30}, {"measurement": "Flatsedge plant response rating", "setting": "[2]; Rate 250 g/ha", "result": 100}, {"measurement": "Flatsedge plant response rating", "setting": "[2]; Rate 500 g/ha", "result": 100}, {"measurement": "Plant response rating, Flatsedge", "setting": "[2]; Rate 62 g/ha", "result": 0}, {"measurement": "Plant response rating, Flatsedge", "setting": "[2]; Rate 125 g/ha", "result": 100}, {"measurement": "Plant response rating (0 to 100), Nightshade", "setting": "[3]", "result": 90}, {"measurement": "Plant response rating, Wheat", "setting": "[4]; [28]", "result": 0}, {"measurement": "Plant response rating, Wheat", "setting": "[4]; [29]", "result": 0}, {"measurement": "Plant response rating, Crabgrass", "setting": "[5]; [28]", "result": 0}, {"measurement": "Plant response rating, Crabgrass", "setting": "[5]; [29]", "result": 0}, {"measurement": "Plant response rating, Lambsquarters", "setting": "[6]; [28]", "result": 0}, {"measurement": "Plant response rating, Lambsquarters", "setting": "[6]; [29]", "result": 50}, {"measurement": "Plant response rating, Surinam grass", "setting": "[7]; [28]", "result": 0}, {"measurement": "Plant response rating, Surinam grass", "setting": "[7]; [29]", "result": 0}, {"measurement": "Plant response rating, Barnyardgrass", "setting": "[8]; [28]", "result": 0}, {"measurement": "Plant response rating, Barnyardgrass", "setting": "[8]; [29]", "result": 30}, {"measurement": "Plant response rating, Wild Oat", "setting": "[9]; [28]", "result": 0}, {"measurement": "Plant response rating, Wild Oat", "setting": "[9]; [29]", "result": 0}, {"measurement": "Plant response rating, Corn", "setting": "[10]; [28]", "result": 0}, {"measurement": "Plant response rating, Corn", "setting": "[10]; [29]", "result": 0}, {"measurement": "Plant response rating, Pigweed", "setting": "[11]; [28]", "result": 0}, {"measurement": "Plant response rating, Pigweed", "setting": "[11]; [29]", "result": 40}, {"measurement": "Plant response rating, Velvetleaf", "setting": "[12]; [28]", "result": 0}, {"measurement": "Plant response rating, Velvetleaf", "setting": "[12]; [29]", "result": 0}, {"measurement": "Plant response rating, Blackgrass", "setting": "[13]; [28]", "result": 0}, {"measurement": "Plant response rating, Blackgrass", "setting": "[13]; [29]", "result": 0}, {"measurement": "Plant response rating, Cocklebur", "setting": "[14]; [28]", "result": 0}, {"measurement": "Plant response rating, Cocklebur", "setting": "[14]; [29]", "result": 0}, {"measurement": "Plant response rating, Foxtail, Giant", "setting": "[15]; [28]", "result": 0}, {"measurement": "Plant response rating, Foxtail, Giant", "setting": "[15]; [29]", "result": 0}, {"measurement": "Plant response rating, Morningglory", "setting": "[16]; [28]", "result": 0}, {"measurement": "Plant response rating, Morningglory", "setting": "[16]; [29]", "result": 0}, {"measurement": "Plant response rating, Crabgrass", "setting": "[17]; [30]", "result": 100}, {"measurement": "Plant response rating, Crabgrass", "setting": "[17]; [31]", "result": 100}, {"measurement": "Plant response rating, Lambsquarters", "setting": "[18]; [30]", "result": 100}, {"measurement": "Plant response rating, Lambsquarters", "setting": "[18]; [31]", "result": 100}, {"measurement": "Plant response rating, Surinam grass", "setting": "[19]; [30]", "result": 100}, {"measurement": "Plant response rating, Surinam grass", "setting": "[19]; [31]", "result": 80}, {"measurement": "Plant response rating, Rice", "setting": "[20]; [30]", "result": 100}, {"measurement": "Plant response rating, Rice", "setting": "[20]; [31]", "result": 70}, {"measurement": "Plant response rating, Barnyardgrass", "setting": "[21]; [30]", "result": 100}, {"measurement": "Plant response rating, Barnyardgrass", "setting": "[21]; [31]", "result": 100}, {"measurement": "Plant response rating, Corn", "setting": "[22]; [30]", "result": 60}, {"measurement": "Plant response rating, Corn", "setting": "[22]; [31]", "result": 30}, {"measurement": "Plant response rating, Pigweed", "setting": "[23]; [30]", "result": 100}, {"measurement": "Plant response rating, Pigweed", "setting": "[23]; [31]", "result": 100}, {"measurement": "Plant response rating, Velvetleaf", "setting": "[24]; [30]", "result": 0}, {"measurement": "Plant response rating, Velvetleaf", "setting": "[24]; [31]", "result": 0}, {"measurement": "Plant response rating, Cocklebur", "setting": "[25]; [30]", "result": 0}, {"measurement": "Plant response rating, Cocklebur", "setting": "[25]; [31]", "result": 0}, {"measurement": "Plant response rating, Foxtail, Giant", "setting": "[26]; [30]", "result": 100}, {"measurement": "Plant response rating, Foxtail, Giant", "setting": "[26]; [31]", "result": 100}, {"measurement": "Plant response rating, Morningglory", "setting": "[27]; [30]", "result": 0}, {"measurement": "Plant response rating, Morningglory", "setting": "[27]; [31]", "result": 0}]}]}
